“And” between values parts separate entries of the source, which are not always exact repeats. Equal entries are not always repeated. Inconclusive results and toxic doses are left out. No stated cut-off is given here; in the data, active means T/C of 150% or more; inactive means T/C below 125%.
Test system: L1210 leukemia ip in BDF1 mice, survival T/C
Assay: NCI In Vivo Anticancer Drug Screen. Data for tumor model L1210 Leukemia (intraperitoneal) in B6D2F1 (BDF1) mice
Conditions: endpoint: mean survival time, higher = longer survival
Outline: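 Antitumor effect is assessed in tumor-bearing animals. Survival in the compound arm is compared with a vehicle-dosed control arm and expressed as their quotient.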

[1] = dose: 100.0 mg/kg/injection, schedule: Q01DX009 (ip), vehicle: gum acacia
[2] = dose: 100.0 mg/kg/injection, schedule: Q04DX003 (ip), vehicle: saline with Tween-80
[3] = dose: 200.0 mg/kg/injection, schedule: Q04DX003 (ip), vehicle: saline with Tween-80
[4] = dose: 100.0 mg/kg/injection, schedule: Q04DX003 (ip), vehicle: saline
[5] = dose: 400.0 mg/kg/injection, schedule: Q04DX003 (ip), vehicle: saline with Tween-80
[6] = dose: 100.0 mg/kg/injection, schedule: Q01DX001 (ip), vehicle: saline
[7] = dose: 100.0 mg/kg/injection, schedule: Q01DX009 (ip), vehicle: saline
[8] = dose: 200.0 mg/kg/injection, schedule: Q01DX001 (ip), vehicle: saline
[9] = dose: 100.0 mg/kg/injection, schedule: Q01DX001 (ip), vehicle: carboxymethylcellulose (CMC)
[10] = dose: 200.0 mg/kg/injection, schedule: Q01DX001 (ip), vehicle: carboxymethylcellulose (CMC)
[11] = dose: 400.0 mg/kg/injection, schedule: Q01DX001 (ip), vehicle: carboxymethylcellulose (CMC)
[12] = dose: 400.0 mg/kg/injection, schedule: Q01DX001 (ip), vehicle: saline

Measured: T/C

CC(=O)c1cccc(OC(=O)Nc2ccc(C)cc2)c1
inactive: dose: 100.0 mg/kg/injection, schedule: Q01DX001 (ip), vehicle: gum acacia 89 % of control | [1] 95 % of control and 88 % of control | dose: 100.0 mg/kg/injection, schedule: Q04DX003 (ip), vehicle: gum acacia 98 % of control and 100 % of control | dose: 200.0 mg/kg/injection, schedule: Q01DX001 (ip), vehicle: gum acacia 100 % of control | dose: 200.0 mg/kg/injection, schedule: Q01DX009 (ip), vehicle: gum acacia 98 % of control and 105 % of control | dose: 200.0 mg/kg/injection, schedule: Q04DX003 (ip), vehicle: gum acacia 93 % of control and 90 % of control | dose: 400.0 mg/kg/injection, schedule: Q01DX001 (ip), vehicle: gum acacia 90 % of control | dose: 400.0 mg/kg/injection, schedule: Q01DX009 (ip), vehicle: gum acacia 98 % of control and 109 % of control | dose: 400.0 mg/kg/injection, schedule: Q04DX003 (ip), vehicle: gum acacia 97 % of control and 103 % of control

NC1=CC(=O)c2ccccc2C1=O
inactive: dose: 15.6 mg/kg/injection, schedule: Q01DX Z (ip), vehicle: other 112 % of control | dose: 62.5 mg/kg/injection, schedule: Q01DX Z (ip), vehicle: other 106 % of control | [2] 103 % of control | [3] 98 % of control

Cn1nnc(CC[N+]2(C)CCOCC2)n1
inactive: [4] 94 % of control | dose: 200.0 mg/kg/injection, schedule: Q04DX003 (ip), vehicle: saline 96 % of control

NCC(=O)N/C(=C/c1ccccc1)C(=O)NCC(=O)O
inactive: dose: 100.0 mg/kg/injection, schedule: Q04DX002 (ip), vehicle: saline with Tween-80 97 % of control | dose: 200.0 mg/kg/injection, schedule: Q04DX002 (ip), vehicle: saline with Tween-80 97 % of control | dose: 400.0 mg/kg/injection, schedule: Q04DX002 (ip), vehicle: saline with Tween-80 97 % of control

O=Cc1cc(O)ccc1[N+](=O)[O-]
inactive: dose: 100.0 mg/kg/injection, schedule: Q01DX009 (ip), vehicle: saline with Tween-80 98 % of control | [2] 103 % of control | dose: 200.0 mg/kg/injection, schedule: Q01DX009 (ip), vehicle: saline with Tween-80 88 % of control | [3] 104 % of control | [5] 109 % of control

Cc1cc[n+](Cc2ccc([N+](=O)[O-])cc2)cc1
inactive: dose: 25.0 mg/kg/injection, schedule: Q01DX009 (ip), vehicle: saline 94 % of control | dose: 50.0 mg/kg/injection, schedule: Q01DX009 (ip), vehicle: saline 89 % of control | dose: 50.0 mg/kg/injection, schedule: Q04DX003 (ip), vehicle: saline 101 % of control | [6] 96 % of control | [7] 93 % of control | [4] 98 % of control | [8] 100 % of control

CCOC(=O)c1cc([N+](=O)[O-])c([N+](=O)[O-])cc1Cl
inactive: dose: 12.5 mg/kg/injection, schedule: Q04DX003 (ip), vehicle: Klucel (hydroxypropylcellulose) (HPC) 102 % of control | dose: 25.0 mg/kg/injection, schedule: Q04DX003 (ip), vehicle: Klucel (hydroxypropylcellulose) (HPC) 103 % of control | dose: 50.0 mg/kg/injection, schedule: Q04DX003 (ip), vehicle: Klucel (hydroxypropylcellulose) (HPC) 98 % of control

CC1(C)Oc2c(ccc(O)c2CN2CCOCC2)C2=C1CCCC2
inactive: [9] 93 % of control | [10] 96 % of control | [11] 91 % of control

CC1=CC(C)(C)Nc2cc(N)ccc21
inactive: dose: 75.0 mg/kg/injection, schedule: Q01DX001 (ip), vehicle: other 110 % of control | dose: 150.0 mg/kg/injection, schedule: Q01DX001 (ip), vehicle: other 105 % of control | dose: 300.0 mg/kg/injection, schedule: Q01DX001 (ip), vehicle: other 91 % of control

CC(O)C(O)C(N)CC=O (centres undefined)
inactive: dose: 5.0 mg/kg/injection, schedule: Q01DX001 (ip), vehicle: saline 101 % of control | dose: 10.0 mg/kg/injection, schedule: Q01DX001 (ip), vehicle: saline 113 % of control | dose: 20.0 mg/kg/injection, schedule: Q01DX001 (ip), vehicle: saline 97 % of control | dose: 40.0 mg/kg/injection, schedule: Q01DX001 (ip), vehicle: saline 98 % of control | [7] 102 % of control | dose: 200.0 mg/kg/injection, schedule: Q01DX009 (ip), vehicle: saline 97 % of control | dose: 400.0 mg/kg/injection, schedule: Q01DX009 (ip), vehicle: saline 97 % of control

OCc1ccc(CO)cc1
inactive: dose: 100.0 mg/kg/injection, schedule: Q01DX009 (ip), vehicle: saline sonified 100 % of control | dose: 200.0 mg/kg/injection, schedule: Q01DX009 (ip), vehicle: saline sonified 94 % of control | dose: 400.0 mg/kg/injection, schedule: Q01DX009 (ip), vehicle: saline sonified 103 % of control

CCOC(=O)c1cc(Cl)c(O)c(Cl)c1
inactive: dose: 25.0 mg/kg/injection, schedule: Q01DX009 (ip), vehicle: gum acacia 100 % of control | dose: 50.0 mg/kg/injection, schedule: Q01DX009 (ip), vehicle: gum acacia 98 % of control | [1] 98 % of control and 100 % of control | dose: 100.0 mg/kg/injection, schedule: Q04DX003 (ip), vehicle: Klucel (hydroxypropylcellulose) (HPC) 93 % of control | dose: 200.0 mg/kg/injection, schedule: Q04DX003 (ip), vehicle: Klucel (hydroxypropylcellulose) (HPC) 103 % of control | dose: 400.0 mg/kg/injection, schedule: Q04DX003 (ip), vehicle: Klucel (hydroxypropylcellulose) (HPC) 95 % of control

CCOC(=O)C(C)C(=O)c1ccccc1 (centres undefined)
inactive: dose: 50.0 mg/kg/injection, schedule: Q01DX001 (ip), vehicle: carboxymethylcellulose (CMC) 107 % of control | [9] 102 % of control | [6] 95 % of control | dose: 100.0 mg/kg/injection, schedule: Q01DX009 (ip), vehicle: acetone 96 % of control | [10] 107 % of control | [8] 94 % of control | dose: 200.0 mg/kg/injection, schedule: Q01DX009 (ip), vehicle: acetone 93 % of control | [11] 107 % of control | [12] 94 % of control | dose: 400.0 mg/kg/injection, schedule: Q01DX009 (ip), vehicle: acetone 98 % of control

Brc1ccccc1C=C1c2ccccc2-c2ccccc21
inactive: [2] 102 % of control | [3] 101 % of control | [5] 96 % of control

O=C(ON(Cc1ccccc1)Cc1ccccc1)c1ccccc1
inactive: dose: 100.0 mg/kg/injection, schedule: Q01DX001 (ip), vehicle: other 103 % of control | dose: 200.0 mg/kg/injection, schedule: Q01DX001 (ip), vehicle: other 100 % of control | dose: 400.0 mg/kg/injection, schedule: Q01DX001 (ip), vehicle: other 103 % of control

C[CH2][Hg][Cl]
inactive: dose: 12.5 mg/kg/injection, schedule: Q04DX002 (ip), vehicle: Klucel (hydroxypropylcellulose) (HPC) 97 % of control | dose: 25.0 mg/kg/injection, schedule: Q04DX002 (ip), vehicle: Klucel (hydroxypropylcellulose) (HPC) 94 % of control | [6] 97 % of control

CC(N=CN(C)C)c1cccc2ccccc12 (centres undefined)
inactive: dose: 75.0 mg/kg/injection, schedule: Q01DX009 (ip), vehicle: saline with Tween-80 102 % of control | [2] 97 % of control | dose: 150.0 mg/kg/injection, schedule: Q01DX009 (ip), vehicle: saline with Tween-80 112 % of control | [3] 102 % of control | dose: 300.0 mg/kg/injection, schedule: Q01DX009 (ip), vehicle: saline with Tween-80 112 % of control

C[n+]1ccc(C(=O)O)c2ccccc21
inactive: dose: 75.0 mg/kg/injection, schedule: Q01DX001 (ip), vehicle: saline 94 % of control | dose: 75.0 mg/kg/injection, schedule: Q04DX003 (ip), vehicle: acetone 92 % of control | dose: 150.0 mg/kg/injection, schedule: Q01DX001 (ip), vehicle: saline 95 % of control | dose: 150.0 mg/kg/injection, schedule: Q04DX003 (ip), vehicle: acetone 89 % of control | dose: 300.0 mg/kg/injection, schedule: Q01DX001 (ip), vehicle: saline 90 % of control

O=C1C(=O)C2=C(NCCC2)C(O)=C1Cl
inactive: dose: 100.0 mg/kg/injection, schedule: Q01DX001 (ip), vehicle: water 93 % of control | dose: 200.0 mg/kg/injection, schedule: Q01DX001 (ip), vehicle: water 95 % of control | dose: 400.0 mg/kg/injection, schedule: Q01DX001 (ip), vehicle: water 98 % of control

CCCCOC(N)=O
inactive: dose: 50.0 mg/kg/injection, schedule: Q01DX001 (ip), vehicle: saline 105 % of control | [6] 95 % of control | [2] 95 % of control and 100 % of control | [8] 93 % of control | [3] 95 % of control and 97 % of control | [12] 98 % of control | [5] 97 % of control and 102 % of control

Source: PubChem BioAssay AID248 (DTP/NCI, 2004)
